# Measured values as given in the Kinase Knowledgebase extract (Sharma et al. 2016).
# Molecular target: PIK3CD (Human) (UniProt O00329)
# Test: Cell-Free Assay
# PIK3CD (Human), sequence (O00329 whole entry, looked up): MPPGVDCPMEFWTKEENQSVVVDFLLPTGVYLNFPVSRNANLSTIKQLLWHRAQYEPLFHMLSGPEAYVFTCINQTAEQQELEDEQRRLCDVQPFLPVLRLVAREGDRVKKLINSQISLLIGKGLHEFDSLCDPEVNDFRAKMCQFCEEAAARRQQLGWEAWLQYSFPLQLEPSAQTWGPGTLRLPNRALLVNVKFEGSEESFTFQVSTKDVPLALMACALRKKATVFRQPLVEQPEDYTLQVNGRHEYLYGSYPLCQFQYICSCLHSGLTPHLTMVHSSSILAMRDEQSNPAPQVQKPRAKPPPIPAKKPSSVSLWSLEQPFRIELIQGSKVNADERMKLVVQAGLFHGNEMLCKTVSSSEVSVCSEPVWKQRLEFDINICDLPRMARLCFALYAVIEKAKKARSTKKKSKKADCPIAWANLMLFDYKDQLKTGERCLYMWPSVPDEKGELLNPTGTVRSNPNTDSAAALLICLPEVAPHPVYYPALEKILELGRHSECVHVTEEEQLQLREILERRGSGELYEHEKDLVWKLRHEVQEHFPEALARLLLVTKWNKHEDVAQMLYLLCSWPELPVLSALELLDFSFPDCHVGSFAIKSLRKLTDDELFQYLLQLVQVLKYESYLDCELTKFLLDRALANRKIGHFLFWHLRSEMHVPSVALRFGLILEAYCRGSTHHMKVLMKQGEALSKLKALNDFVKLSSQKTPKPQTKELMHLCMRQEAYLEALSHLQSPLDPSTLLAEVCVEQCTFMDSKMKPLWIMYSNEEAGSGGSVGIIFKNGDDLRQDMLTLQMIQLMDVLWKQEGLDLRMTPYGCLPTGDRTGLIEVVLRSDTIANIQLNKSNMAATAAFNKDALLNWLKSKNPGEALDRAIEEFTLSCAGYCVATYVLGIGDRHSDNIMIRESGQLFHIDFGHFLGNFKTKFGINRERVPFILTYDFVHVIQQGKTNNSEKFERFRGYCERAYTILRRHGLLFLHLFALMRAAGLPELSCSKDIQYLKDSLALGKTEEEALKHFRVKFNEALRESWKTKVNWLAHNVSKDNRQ
row,SMILES,IC50
1,Cc1ccn2nc(Cn3nc(-c4cc(O)cc(F)c4)c4c(N)ncnc43)nc(N3CCSCC3)c12,2.7 nM
2,Cc1ccn2nc([C@H](C)Nc3ncnc(N)c3C#N)nc(Oc3cccc(NCCN(C)C)c3)c12,10 nM
3,COc1cccc(N(C)c2nc([C@H](C)Nc3ncnc(N)c3C#N)nn3ccc(C)c23)c1,19 nM
4,COc1ncc(-c2nc([C@H](C)Nc3ncnc(N)c3C#N)nn3ccc(C)c23)cc1NS(C)(=O)=O,7 nM
5,Cc1ccn2nc([C@H](C)Nc3ncnc(N)c3C#N)nc(-c3cc(O)cc(C(F)(F)F)c3)c12,1 nM
6,Cc1cc(-c2nc([C@H](C)Nc3ncnc(N)c3C#N)nn3ccc(C)c23)n(C)n1,9.9 nM
7,Cc1ccn2nc(Cn3nc(-c4cc(O)cc(F)c4)c4c(N)ncnc43)nc(OCCN3CCC(C(=O)O)CC3)c12,0.6 nM
8,CC(=O)N1[C@H](C)CN(c2nc([C@H](C)Nc3ncnc(N)c3C#N)nn3ccc(C)c23)C[C@@H]1C,45.4 nM
9,Cc1cc(-c2nc([C@H](C)Nc3ncnc(N)c3C#N)nn3cccc23)cc(C)c1C(=O)NCCO,11.4 nM
10,Cc1ccn2nc([C@H](C)Nc3ncnc4[nH]cc(C#N)c34)nc(N(CCN(C)C)c3cccc(O)c3)c12,1 nM
11,CNCCNc1nc([C@H](C)Nc2ncnc(N)c2C#N)nn2ccc(C)c12,6.1 nM
12,Cc1cc(C(=O)N(C)Cc2cccc(O)c2)cc(-c2nc([C@H](C)Nc3ncnc(N)c3C#N)nn3ccc(C)c23)c1,1.7 nM
13,Cc1ccn2nc(Cn3nc(-c4cc(O)cc(F)c4)c4c(N)ncnc43)nc(N(CCN(C)C)c3cccc(O)c3)c12,0.1 nM
14,Cc1ccn2nc(Cn3nc(-c4cc(O)cc(F)c4)c4c(N)ncnc43)nc(N3CCCNCC3)c12,6.1 nM
15,Cc1ccn2nc([C@H](C)Nc3ncnc(N)c3C#N)nc(N(CCN(C)C)Cc3ccc(N4CCN(C)CC4)cc3)c12,2.9 nM
16,Cc1cc(C(=O)O)cc(-c2nc([C@H](C)Nc3ncnc(N)c3C#N)nn3ccc(C)c23)c1,0.4 nM
17,CC(C)Oc1nc([C@H](C)Nc2ncnc(N)c2C#N)nn2cccc12,62 nM
18,Cc1ccn2nc([C@H](C)Nc3ncnc(N)c3C#N)nc(N(CCN3CCOCC3)c3cccc(O)c3)c12,13 nM
19,Cc1ccn2nc(Cn3nc(-c4cc(O)cc(F)c4)c4c(N)ncnc43)nc(OCC3CCOCC3)c12,2 nM
20,CN[C@H]1CCCC[C@@H]1N(C)c1nc([C@H](C)Nc2ncnc(N)c2C#N)nn2ccc(C)c12,10.6 nM

row,SMILES,IC50
1,Cc1ccn2nc(Cn3nc(-c4cc(O)cc(F)c4)c4c(N)ncnc43)nc(N3C[C@@H]4CC[C@H]3CN4S(C)(=O)=O)c12,5.9 nM
2,Cc1cc(-c2nc([C@H](C)Nc3ncnc(N)c3C#N)nn3ccc(C)c23)cc(C)c1O,0.3 nM
3,Cc1ccn2nc([C@H](C)Nc3ncnc(N)c3C#N)nc(-c3cc(O)cc(C(=O)NCCN(C)C)c3)c12,3.6 nM
4,COc1ccc(S(=O)(=O)Nc2cc(-c3nc([C@H](C)Nc4ncnc(N)c4C#N)nn4ccc(C)c34)cnc2O)cc1,10 nM
5,Cc1ccn2nc([C@H](C)Nc3ncnc(N)c3C#N)nc(N(CCN(C)C)Cc3ccc(N4CCC(N(C)C)CC4)cc3)c12,6.4 nM
6,Cc1ccn2nc(Cn3nc(-c4cc(O)cc(F)c4)c4c(N)ncnc43)nc(N3C[C@@H](C)O[C@@H](C)C3)c12,1 nM
7,Cc1ccn2nc([C@H](C)Nc3ncnc(N)c3C#N)nc(N3CCC(CN4CCCC4)CC3)c12,6.2 nM
8,Cc1ccn2nc(Cn3nc(-c4cc(O)cc(F)c4)c4c(N)ncnc43)nc(N3CCS(=O)(=O)CC3)c12,2.5 nM
9,Cc1ccn2nc([C@H](C)Nc3ncnc(N)c3C#N)nc(-c3cc(O)cc(C#N)c3)c12,1.3 nM
10,Cc1ccn2nc(Cn3nc(-c4cncc(O)c4)c4c(N)ncnc43)nc(N3C[C@@H](C)N[C@@H](C)C3)c12,0.9 nM
11,Cc1ccn2nc([C@H](C)Nc3ncnc(N)c3C#N)nc(OC3CCN(C(C)C)CC3)c12,6 nM
12,Cc1ccn2nc(Cn3nc(-c4cc(O)cc(F)c4)c4c(N)ncnc43)nc(OCCN3CCOCC3)c12,0.8 nM
13,Cc1ccn2nc(Cn3nc(-c4cc(O)cc(F)c4)c4c(N)ncnc43)nc(N3C[C@@H]4C[C@H]3CN4)c12,1 nM
14,Cc1ccn2nc([C@H](C)Nc3ncnc(N)c3C#N)nc(-c3ccnc(N4CCC(N(C)C)CC4)c3)c12,5.9 nM
15,Cc1ccn2nc(Cn3nc(-c4cc(O)cc(NS(C)(=O)=O)c4)c4c(N)ncnc43)nc(N3C[C@@H](C)N[C@@H](C)C3)c12,0.5 nM
16,Cc1ccn2nc([C@H](C)Nc3ncnc4[nH]cc(-c5cnn(C)c5)c34)nc(N3C[C@@H](C)N[C@@H](C)C3)c12,2 nM
17,Cc1ccn2nc([C@H](C)Nc3ncnc(N)c3C#N)nc(-c3cc(O)cc(C(=O)NC4CC4)c3)c12,2 nM
18,Cc1ccn2nc([C@H](C)Nc3ncnc(N)c3C#N)nc(CCN3CCOCC3)c12,1.9 nM
19,Cc1cc(C(=O)NCCCCCN(C)CCO)cc(-c2nc([C@H](C)Nc3ncnc(N)c3C#N)nn3ccc(C)c23)c1,3.1 nM
20,Cc1ccn2nc(Cn3nc(-c4cc(O)cc(F)c4)c4c(N)ncnc43)nc(OCCN3CCCC3=O)c12,2.5 nM

row,SMILES,IC50
1,Cc1ccn2nc([C@H](C)Nc3ncnc4[nH]cc(-c5cc(O)cc(NS(=O)(=O)CCN(C)C)c5)c34)nc(N3C[C@@H](C)N[C@@H](C)C3)c12,6.2 nM
2,Cc1cc(C(=O)NCc2ccc(S(N)(=O)=O)cc2)cc(-c2nc([C@H](C)Nc3ncnc(N)c3C#N)nn3cccc23)c1,76.7 nM
3,Cc1ccn2nc(Cn3nc(-c4cc(O)cc(F)c4)c4c(N)ncnc43)nc(N3CCC(C(N)=O)CC3)c12,2.8 nM
4,C[C@H](Nc1ncnc(N)c1C#N)c1nc(OCC2CCOCC2)c2c(C#N)ccn2n1,31 nM
5,Cc1cc(N(C)C)cc(C2CCN(c3cc(-c4nc([C@H](C)Nc5ncnc(N)c5C#N)nn5ccc(C)c45)ccn3)CC2)n1,2.8 nM
6,C[C@H](Nc1ncnc(N)c1C#N)c1nc(OCC2CCOCC2)c2c(Br)ccn2n1,6 nM
7,Cc1ccn2nc([C@H](C)Nc3ncnc(N)c3-c3cc(O)cc(F)c3)nc(OCC3CCOCC3)c12,62 nM
8,Cc1ccn2nc([C@H](Cc3cccc(O)c3)Nc3ncnc(N)c3C#N)nc(N3C[C@@H](C)N[C@@H](C)C3)c12,8.8 nM
9,CCOC(=O)C1CCN(CCOc2nc(Cn3nc(-c4cc(O)cc(F)c4)c4c(N)ncnc43)nn3ccc(C)c23)CC1,1.2 nM
10,Cc1ccn2nc([C@H](C)Nc3ncnc(N)c3C#N)nc(N[C@@H](Cc3ccc(O)cc3)C(N)=O)c12,14.6 nM
11,Cc1ccn2nc(Cn3nc(-c4cc(O)cc(F)c4)c4c(N)ncnc43)nc(OC3CCN(C(C)C)CC3)c12,1 nM
12,Cc1ccn2nc(Cn3nc(-c4cc(O)cc(F)c4)c4c(N)ncnc43)nc(NCCN3CCCC3)c12,1.1 nM
13,Cc1ccn2nc([C@H](C)Nc3ncnc(N)c3C#N)nc(Oc3cccc(CO)c3)c12,7 nM
14,C[C@H](Nc1ncnc(N)c1C#N)c1nc(OCC2CCNCC2)c2cccn2n1,27 nM
15,Cc1cc(C(=O)NCc2ccc(C(=O)NCCO)cc2)cc(-c2nc([C@H](C)Nc3ncnc(N)c3C#N)nn3ccc(C)c23)c1,2.6 nM
16,Cc1ccn2nc([C@H](C)Nc3ncnc(N)c3C#N)nc(-c3ccc(O)c(C(C)(C)O)c3)c12,8 nM
17,Cc1ccn2nc([C@H](C)Nc3ncnc(N)c3C#N)nc(N3C[C@@H](C)N[C@@H](C)C3)c12,0.5 nM
18,COc1ncc(-c2c[nH]c3ncnc(N[C@@H](C)c4nc(N5C[C@@H](C)O[C@@H](C)C5)c5c(C)ccn5n4)c23)cc1NS(C)(=O)=O,0.5 nM
